The values below come from US11479556B1, “Bifunctional compounds for degrading BTK via ubiquitin proteosome pathway” (NURIX THERAPEUTICS, INC., priority 2018, dated 2022).

The structures appear in SMILES notation. Bounds are passed on as bounds.

For orientation: DC50 means the midpoint of the concentration-degradation curve. A lower DC50 goes with degradation at low concentration.

T1 sequence (Q06187 whole entry): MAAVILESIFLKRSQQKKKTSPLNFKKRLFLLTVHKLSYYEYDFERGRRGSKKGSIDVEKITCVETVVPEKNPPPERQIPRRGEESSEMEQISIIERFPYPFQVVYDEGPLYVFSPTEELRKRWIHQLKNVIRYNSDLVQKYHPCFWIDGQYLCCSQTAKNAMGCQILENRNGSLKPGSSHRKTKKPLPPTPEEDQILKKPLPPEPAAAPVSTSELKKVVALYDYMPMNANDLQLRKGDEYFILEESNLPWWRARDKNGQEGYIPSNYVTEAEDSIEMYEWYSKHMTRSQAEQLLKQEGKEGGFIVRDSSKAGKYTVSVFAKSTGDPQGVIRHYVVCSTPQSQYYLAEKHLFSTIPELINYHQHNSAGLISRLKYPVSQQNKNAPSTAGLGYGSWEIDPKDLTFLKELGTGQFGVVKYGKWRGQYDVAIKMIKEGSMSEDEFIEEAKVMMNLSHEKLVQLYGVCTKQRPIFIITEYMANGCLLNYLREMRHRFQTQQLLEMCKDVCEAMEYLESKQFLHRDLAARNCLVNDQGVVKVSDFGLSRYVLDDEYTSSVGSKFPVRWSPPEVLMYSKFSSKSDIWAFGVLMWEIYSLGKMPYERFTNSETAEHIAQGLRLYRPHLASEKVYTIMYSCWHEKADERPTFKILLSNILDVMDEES

The test addresses T1, BTK (Homo sapiens, UniProt Q06187).
T1 construct: endogenous in cells; host or cells: TMD8 cells
Nature of the test: Cellular BTK HTRF assay (BTK degradation) in TMD8 cells. Type of test: cell-based. The conditions noted are these: four hours incubation, Total-BTK HTRF relative to DMSO-treated cells. On the procedure: Example 66: BTK Degradation Assay
TMD8 cells were obtained from Tokyo Medical and Dental University and were grown in alpha-MEM (Fisher 12571063) supplemented with 10% heat-inactivated FBS (Corning Premium Fetal Bovine Serum from Fisher, MT35015CV).
Compounds of the present invention were added to 50,000 TMD8 cells in round-bottom 96 well plates with a final DMSO concentration of […] and were incubated at 37° C. 5% CO2 for four hours. BTK levels were determined using Cisbio Total-BTK HTRF ([…] Time-Resolved Fluorescence) kit (63ADK064PEG) according to manufacturer's protocol. Briefly, cells were incubated in 1× supplied lysis buffer for 30 minutes. In an opaque white low volume 96 well plate (Cisbio, 66PL96005), cell lysate was combined with two different specific BTK antibodies, one conjugated with Eu^3+-Cryptate FRET donor and one conjugated with d2 FRET acceptor. Assay controls include wells containing cell lysate with only the Eu^3+-Cryptate FRET donor antibody and wells containing both HTRF antibodies and lysis buffer without cells or control lysate provided by Cisbio. HTRF ratio was calculated as (acceptor signal at 665 nm/donor signal at 620 nm)×10^4. Background HTRF levels were determined from the control well containing the donor, but no acceptor, antibody. Background HTRF levels were subtracted from all samples. Readouts were reported as HTRF levels relative to HTRF levels of DMSO-treated cells. Four-parameter non-linear regressions were performed in GraphPad Prism 7.02 to obtain DC50 values. DC50 values are provided in Table 3, wherein A<5.0 nM, 5.0 nM≤B≤15 nM, and 15 nM<C.
For orientation: Time-resolved FRET reads energy transfer from a long-lived donor to a nearby acceptor.
With `CN1CCN([C@@H]2CCCN(c3cnc(C(N)=O)c(Nc4ccc(C(=O)NCCOCCOCCOCCCc5cccc6c5CN(C5CCC(=O)NC5=O)C6=O)cc4)n3)C2)C1=O` (some centres unmarked) [Compound 2], the DC50 is above 15 nM.

Turning to `CN1CCN([C@@H]2CCCN(c3cnc(C(N)=O)c(Nc4ccc(C(=O)NCCOCCOCCOCCNc5cccc6c5C(=O)N(C5CCC(=O)NC5=O)C6=O)cc4)n3)C2)C1=O` (some centres unmarked) [Compound 3], the DC50 was above 15 nM.

The compound `CN1CCN([C@@H]2CCCN(c3cnc(C(N)=O)c(Nc4ccc(OCCCNC(=O)CCCN5CCN(c6ccc7c(c6)C(=O)N(C6CCC(=O)NC6=O)C7=O)CC5)cc4)n3)C2)C1=O` (some centres unmarked) [Compound 4] displayed a DC50 above 15 nM.

The compound `CN1CCN([C@@H]2CCCN(c3cnc(C(N)=O)c(Nc4ccc(OCCCNC(=O)[C@H]5C[C@@H](OCCCc6cccc7c6C(=O)N(C6CCC(=O)NC6=O)C7=O)C5)cc4)n3)C2)C1=O` (some centres unmarked) [Compound 5] showed a DC50 above 15 nM.

`CN1CCN([C@@H]2CCCN(c3cnc(C(N)=O)c(Nc4ccc(OCCCNC(=O)CCCc5cccc6c5CN(C5CCC(=O)NC5=O)C6=O)cc4)n3)C2)C1=O` (some centres unmarked) [Compound 6]: the 50% degradation concentration (DC50) was above 15 nM.

As for `CN1CCN([C@@H]2CCCN(c3cnc(C(N)=O)c(Nc4ccc(C5(C)CCN(C(=O)CCCc6nnc(Nc7cccc8c7CN(C7CCC(=O)NC7=O)C8=O)o6)CC5)cc4)n3)C2)C1=O` (some centres unmarked) [Compound 7], the DC50 is above 15 nM.

Turning to `CN1CCN([C@@H]2CCCN(c3cnc(C(N)=O)c(Nc4ccc(C(=O)NCCCCNc5cccc6c5C(=O)N(C5CCC(=O)NC5=O)C6=O)cc4)n3)C2)C1=O` (some centres unmarked) [Compound 8], the 50% degradation concentration (DC50) lay in the range of 5 to 15 nM.

The compound `CN1CCN([C@@H]2CCCN(c3cnc(C(N)=O)c(Nc4ccc(C(=O)NCCOCCc5cccc6c5CN(C5CCC(=O)NC5=O)C6=O)cc4)n3)C2)C1=O` (some centres unmarked) [Compound 9] showed a DC50 above 15 nM.

In turn, `CN1CCN([C@@H]2CCCN(c3cnc(C(N)=O)c(Nc4ccc(C5(C)CCN(C(=O)CCOCCCc6ccc7c(c6)C(=O)N(C6CCC(=O)NC6=O)C7=O)CC5)cc4)n3)C2)C1=O` (some centres unmarked) [Compound 10] gave a DC50 of 5 to 15 nM.

In turn, `CN1CCN([C@@H]2CCCN(c3cnc(C(N)=O)c(Nc4ccc(C5(C)CCN(C(=O)CCCN6CCN(c7ccc8c(c7)C(=O)N(C7CCC(=O)NC7=O)C8=O)CC6)CC5)cc4)n3)C2)C1=O` (some centres unmarked) [Compound 11] yielded a half-maximal degradation concentration (DC50) below 5 nM.

With `CN1CCN([C@@H]2CCCN(c3cnc(C(N)=O)c(Nc4ccc(N5CCN(C(=O)CN6CCN(CCc7cccc8c7CN(C7CCC(=O)NC7=O)C8=O)CC6)CC5)cc4)n3)C2)C1=O` (some centres unmarked) [Compound 12], the DC50 is 5 to 15 nM.

Compound `CN1CCN([C@@H]2CCCN(c3cnc(C(N)=O)c(Nc4ccc(C5(C)CCN(C(=O)CN6CCN(CCc7cccc8c7CN(C7CCC(=O)NC7=O)C8=O)CC6)CC5)cc4)n3)C2)C1=O` (some centres unmarked) [Compound 13] gave a 50% degradation concentration (DC50) of 5 to 15 nM.

As for `CN1CCN([C@@H]2CCCN(c3cnc(C(N)=O)c(Nc4ccc(N5CCN(CCCc6cccc7c6CN(C6CCC(=O)NC6=O)C7=O)CC5)cc4)n3)C2)C1=O` (some centres unmarked) [Compound 15], the DC50 was below 5 nM.

Compound `CN1CCN([C@@H]2CCCN(c3cnc(C(N)=O)c(Nc4ccc(C5(C)CCN(CCCc6cccc7c6CN(C6CCC(=O)NC6=O)C7=O)CC5)cc4)n3)C2)C1=O` (some centres unmarked) [Compound 16] gave a half-maximal degradation concentration (DC50) of 5 to 15 nM.

`CN1CCN([C@@H]2CCCN(c3cnc(C(N)=O)c(Nc4ccc(C5(C)CCN(CCOCCCc6cccc7c6C(=O)N(C6CCC(=O)NC6=O)C7=O)CC5)cc4)n3)C2)C1=O` (some centres unmarked) [Compound 18] registered a DC50 of 5 to 15 nM.

For the compound `CN1CCN([C@@H]2CCCN(c3cnc(C(N)=O)c(Nc4ccc(N5CCN(C(=O)CCOCCNc6cccc7c6C(=O)N(C6CCC(=O)NC6=O)C7=O)CC5)cc4)n3)C2)C1=O` (some centres unmarked) [Compound 19], the DC50 was 5 to 15 nM.

As to `CN1CCN([C@@H]2CCCN(c3cnc(C(N)=O)c(Nc4ccc(C5(C)CCN(C(=O)CN6CCN(CCCc7cccc8c7CN(C7CCC(=O)NC7=O)C8=O)CC6)CC5)cc4)n3)C2)C1=O` (some centres unmarked) [Compound 20], the DC50 is below 5 nM.

`CN1CCN([C@@H]2CCCN(c3cnc(C(N)=O)c(Nc4ccc(C5(C)CCN(CCCCc6cccc7c6CN(C6CCC(=O)NC6=O)C7=O)CC5)cc4)n3)C2)C1=O` (some centres unmarked) [Compound 21] had a DC50 of 5 to 15 nM.

`CN1CCN([C@@H]2CCCN(c3cnc(C(N)=O)c(Nc4ccc(C5(C)CCN(C(=O)CN6CCN(CCCc7cccc8c7C(=O)N(C7CCC(=O)NC7=O)C8=O)CC6)CC5)cc4)n3)C2)C1=O` (some centres unmarked) [Compound 22] had a 50% degradation concentration (DC50) of 5 to 15 nM.

For the compound `CN1CCN([C@@H]2CCCN(c3cnc(C(N)=O)c(Nc4ccc(C5CCN(C(=O)CCCCc6cccc7c6CN(C6CCC(=O)NC6=O)C7=O)CC5)cc4)n3)C2)C1=O` (some centres unmarked) [Compound 23], the DC50 lay within 5 to 15 nM.

Turning to `CN1CCN([C@@H]2CCCN(c3cnc(C(N)=O)c(Nc4ccc(C5CCN(C(=O)CCOCCOCCOCCNc6cccc7c6C(=O)N(C6CCC(=O)NC6=O)C7=O)CC5)cc4)n3)C2)C1=O` (some centres unmarked) [Compound 24], the DC50 was in the range of 5 to 15 nM.

In turn, `CN1CCN([C@@H]2CCCN(c3cnc(C(N)=O)c(Nc4ccc(C5(C)CCN(C(=O)CCCCc6cccc7c6CN(C6CCC(=O)NC6=O)C7=O)CC5)cc4)n3)C2)C1=O` (some centres unmarked) [Compound 26] yielded a 50% degradation concentration (DC50) of 5 to 15 nM.

Take `CN1CCN([C@@H]2CCCN(c3cnc(C(N)=O)c(Nc4ccc(C5(C)CCN(C(=O)CCOCCOCCOCCNc6cccc7c6C(=O)N(C6CCC(=O)NC6=O)C7=O)CC5)cc4)n3)C2)C1=O` (some centres unmarked) [Compound 27]: the DC50 was in the range of 5 to 15 nM.

Regarding `CN1CCN([C@@H]2CCCN(c3cnc(C(N)=O)c(Nc4ccc(C5(C)CCN(C(=O)CCOCCNc6cccc7c6C(=O)N(C6CCC(=O)NC6=O)C7=O)CC5)cc4)n3)C2)C1=O` (some centres unmarked) [Compound 28], the DC50 lay within 5 to 15 nM.

Take `CN1CCN([C@@H]2CCCN(c3cnc(C(N)=O)c(Nc4ccc(C5CCN(C[C@@H]6CCCN(c7ccc8c(c7)C(=O)N(C7CCC(=O)NC7=O)C8=O)C6)CC5)cc4)n3)C2)C1=O` (stereo partly drawn) [Compound 32, 3-((4-(1-(((3S)-1-(2-(2,6-dioxopiperidin-3-yl)-1,3-dioxoisoindolin-5-yl)piperidin-3-yl)methyl)piperidin-4-yl)phenyl)amino)-5-((R)-3-(3-methyl-2-oxoimidazolidin-1-yl)piperidin-1-yl)pyrazine-2-carboxamide]: the 50% degradation concentration (DC50) is below 5 nM.

For `CN1CCN([C@@H]2CCCN(c3cnc(C(N)=O)c(Nc4ccc(N5CC6(CN(CCCc7cccc8c7CN(C7CCC(=O)NC7=O)C8=O)C6)C5)cc4)n3)C2)C1=O` (some centres unmarked) [Compound 33], the half-maximal degradation concentration (DC50) is below 5 nM.

Take `CN1CCN([C@@H]2CCCN(c3cnc(C(N)=O)c(Nc4ccc(C5CN(C[C@H]6CCN(c7ccc8c(c7)C(=O)N(C7CCC(=O)NC7=O)C8=O)C6)C5)cc4)n3)C2)C1=O` (some centres unmarked) [Compound 35]: the DC50 was below 5 nM.

In turn, `CN1CCN([C@@H]2CCCN(c3cnc(C(N)=O)c(Nc4ccc(C5CN(CCCCc6cccc7c6CN(C6CCC(=O)NC6=O)C7=O)C5)cc4)n3)C2)C1=O` (some centres unmarked) [Compound 36] registered a 50% degradation concentration (DC50) of 5 to 15 nM.

In the case of `CN1CCN([C@@H]2CCCN(c3cnc(C(N)=O)c(Nc4ccc(C5CCN(C[C@@H]6[C@H]7CN(c8ccc9c(c8)C(=O)N(C8CCC(=O)NC8=O)C9=O)C[C@@H]67)CC5)cc4)n3)C2)C1=O` (some centres unmarked) [Compound 39], the 50% degradation concentration (DC50) is below 5 nM.

Take `CN1CCN([C@@H]2CCCN(c3cnc(C(N)=O)c(Nc4ccc(N5CCN(CCC6CCN(c7ccc8c(c7)C(=O)N(C7CCC(=O)NC7=O)C8=O)CC6)CC5)cc4)n3)C2)C1=O` (some centres unmarked) [Compound 40]: the 50% degradation concentration (DC50) was below 5 nM.

`CN1CCN([C@@H]2CCCN(c3cnc(C(N)=O)c(Nc4ccc(C5CCN(CCC6CCN(c7ccc8c(c7)C(=O)N(C7CCC(=O)NC7=O)C8=O)CC6)CC5)cc4)n3)C2)C1=O` (some centres unmarked) [Compound 41] yielded a DC50 below 5 nM.

The compound `CN1CCN([C@@H]2CCCN(c3cnc(C(N)=O)c(Nc4ccc(N5CCN(C[C@H]6CCN(c7ccc8c(c7)C(=O)N(C7CCC(=O)NC7=O)C8=O)C6)CC5)cc4)n3)C2)C1=O` (some centres unmarked) [Compound 42] displayed a half-maximal degradation concentration (DC50) below 5 nM.

As to `CN1CCN([C@@H]2CCCN(c3cnc(C(N)=O)c(Nc4ccc(N5CCN(CCC6CN(c7ccc8c(c7)C(=O)N(C7CCC(=O)NC7=O)C8=O)C6)CC5)cc4)n3)C2)C1=O` (some centres unmarked) [Compound 43], the half-maximal degradation concentration (DC50) is below 5 nM.

In turn, `CN1CCN([C@@H]2CCCN(c3cnc(C(N)=O)c(Nc4ccc(C5CCN(CCC6CN(c7ccc8c(c7)C(=O)N(C7CCC(=O)NC7=O)C8=O)C6)CC5)cc4)n3)C2)C1=O` (some centres unmarked) [Compound 45] registered a DC50 below 5 nM.

The compound `CN1CCN([C@@H]2CCCN(c3cnc(C(N)=O)c(Nc4ccc(N5CCN(C[C@@H]6CCCN(c7ccc8c(c7)C(=O)N(C7CCC(=O)NC7=O)C8=O)C6)CC5)cc4)n3)C2)C1=O` (some centres unmarked) [Compound 46] yielded a DC50 below 5 nM.

`CN1CCN([C@@H]2CCCN(c3cnc(C(N)=O)c(Nc4ccc(C5CCN(c6ccc7c(c6)C(=O)N(C6CCC(=O)NC6=O)C7=O)CC5)cc4)n3)C2)C1=O` (some centres unmarked) [Compound 47]: the 50% degradation concentration (DC50) was below 5 nM.

With `CN1CCN([C@@H]2CCCN(c3cnc(C(N)=O)c(Nc4ccc(N5CCN(C[C@H]6CCCN(c7ccc8c(c7)C(=O)N(C7CCC(=O)NC7=O)C8=O)C6)CC5)cc4)n3)C2)C1=O` (some centres unmarked) [Compound 48], the 50% degradation concentration (DC50) is below 5 nM.

Take `CN1CCN([C@@H]2CCCN(c3cnc(C(N)=O)c(Nc4ccc(N5CCN(CC6CCN(c7ccc8c(c7)C(=O)N(C7CCC(=O)NC7=O)C8=O)CC6)CC5)cc4)n3)C2)C1=O` (some centres unmarked) [Compound 49]: the half-maximal degradation concentration (DC50) was below 5 nM.
